In paper PMC11868595, “Safety, pharmacokinetics and efficacy of HA121-28 in patients with advanced solid tumors and RET fusion-positive non-small-cell lung cancer: a multicenter, open-label, single-arm phase 1/2 trial” (Signal Transduction and Targeted Therapy, 2025):

Test system: patients with advanced solid tumors
Assay: Phase 1 trial: adverse events (CTCAE), DLT and MTD
Format: in vivo, human
Description: The phase 1 trial was a two-part, multicenter, open-label, nonrandomized study to evaluate the safety and preliminary efficacy of HA121-28.
Safety, tolerability, and PK of HA121-28 was assessed in dose-escalation part. The single-patient accelerated titration was carried out at 25 mg and 50 mg; then, the dose escalation proceeded according to a “3 + 3” design in dose range of 100 to 800 mg. Escalation to a higher dose level was considered by the satisfactory review of safety results from the previous lower dose during the first cycle.
The dose-expansion part aims to further access the safety and efficacy of HA121-28 at the selected doses based on data from the dose-escalation part. The RP2D was determined by investigators in view of a thorough review of safety, PK, and efficacy results.
In phase 1 trial, during the dose-escalation part, patients first administered HA121-28 in a single ascending dose under the fasted state, then followed up for seven days. Then, patients received ascending doses of HA121-28 (q.d.) on a 21-day on and 7-day off treatment scheme for a 28-day cycle. For patients deemed beneficial from the treatment by investigators, treatment could remain until disease progression, or they discontinued from the study. In the dose-expansion part of phase 1, as well as phase 2, patients received HA121-28 (q.d.) at the selected doses on a 21-day on and 7-day off treatment scheme until disease progression, or they discontinued from the study.
Treatment-emergent adverse events (TEAEs) were documented during the entire study period. The predefined adverse event of special interest (AESI) was ≥ grade 3 prolonged QT interval. Tumor imaging was performed using contrast-enhanced computed tomography or magnetic resonance imaging at screening, Day 28 of the first cycle, then approximately every eight weeks till the end of the study for phase 1; in phase 2, imaging was scheduled at screening, and every eight weeks during the first 40 weeks, followed by every 12 weeks for the rest of the study period. RECIST 1.1 was used by the independent review committee or investigators for assessment of tumor response. After the original assessment, a repeated assessment was required around four weeks later to confirm a complete or partial response.
The primary endpoints of phase 1 were to investigate the MTD, dose-limiting toxicities, and the incidence and severity of TEAEs. Each TEAE was graded according to the Common Terminology Criteria for Adverse Events (CTCAE, version 5.0) and coded by Medical Dictionary for Regulatory Activities (MedDRA, version 21.0). The secondary endpoints included calculating PK parameters, assessing the ORR and DCR at the recommended dose by investigators as per RECIST 1.1. The exploratory endpoint was PFS.
If grade 2 or higher toxicity related to the study drug occurs in Groups 1 and 2 (as determined by the investigator), dose escalation will proceed using a 3+3 design starting from that dose level. If no DLT is observed at the 800 mg/d dose level after dose escalation, a meeting of investigators will be convened to decide whether to proceed with further dose escalation based on the available PK data, safety, and tolerability information.
5. Definition of DLT and MTD
The following events related to the study drug (including those that are definitely related, highly likely to be related, and possibly related):
(1) Grade 4 hematologic toxicity or grade 3 neutropenia accompanied by a fever of 38.5℃ or higher, or grade 3 thrombocytopenia accompanied by severe bleeding.
(2) Patients who discontinued the medication for more than 7 days due to unresolved toxicity reactions or who discontinued the medication more than twice due to toxicity […]
(3) In the context of supportive treatment, diarrhea of grade 2 lasting more than 7 days, or grade 3 diarrhea lasting more than 3 days.

COc1cc2c(Nc3ccc(Br)cc3F)ncnc2cc1OCCCCN(C)C.Cl.Cl [HA121-28, N-(4-bromo-2-fluorophenyl)-7-(4-(dimethylamino)butoxy)-6-methoxy quinazolin-4-amine dihydrochloride]
Serious TEAE: Acute pancreatitis (Phase 1, 450 mg (N=79)): 0 No. (%)
Serious TEAE: Anal abscess (Phase 1, 450 mg (N=79)): 0 No. (%)
Serious TEAE: Any (Phase 1, 450 mg (N=79)): 15 (19.0) No. (%)
Serious TEAE: Aortic intramural hematoma (Phase 1, 450 mg (N=79)): 0 No. (%)
Serious TEAE: Arrhythmia (Phase 1, 450 mg (N=79)): 1 (1.3) No. (%)
Serious TEAE: Blood bilirubin increased (Phase 1, 450 mg (N=79)): 0 No. (%)
Serious TEAE: Blood creatinine increased (Phase 1, 450 mg (N=79)): 0 No. (%)
Serious TEAE: COVID-19 (Phase 1, 450 mg (N=79)): 0 No. (%)
Serious TEAE: Cardiac tamponade (Phase 1, 450 mg (N=79)): 1 (1.3) No. (%)
Serious TEAE: Coronary artery atherosclerosis (Phase 1, 450 mg (N=79)): 0 No. (%)
Serious TEAE: Death (Phase 1, 450 mg (N=79)): 1 (1.3) No. (%)
Serious TEAE: Diarrhea (Phase 1, 450 mg (N=79)): 0 No. (%)
Serious TEAE: Drug eruption (Phase 1, 450 mg (N=79)): 0 No. (%)
Serious TEAE: Dyspnea (Phase 1, 450 mg (N=79)): 0 No. (%)
Serious TEAE: Embolism (Phase 1, 450 mg (N=79)): 0 No. (%)
Serious TEAE: Erythema multiforme (Phase 1, 450 mg (N=79)): 0 No. (%)
Serious TEAE: Headache (Phase 1, 450 mg (N=79)): 0 No. (%)
Serious TEAE: Hemoptysis (Phase 1, 450 mg (N=79)): 2 (2.5) No. (%)
Serious TEAE: Hydronephrosis (Phase 1, 450 mg (N=79)): 0 No. (%)
Serious TEAE: Hypertension (Phase 1, 450 mg (N=79)): 1 (1.3) No. (%)
Serious TEAE: Hypoalbuminemia (Phase 1, 450 mg (N=79)): 0 No. (%)
Serious TEAE: Intestinal obstruction (Phase 1, 450 mg (N=79)): 1 (1.3) No. (%)
Serious TEAE: Intra-abdominal fluid collection (Phase 1, 450 mg (N=79)): 0 No. (%)
Serious TEAE: Intracranial tumor hemorrhage (Phase 1, 450 mg (N=79)): 0 No. (%)
Serious TEAE: Liver injury (Phase 1, 450 mg (N=79)): 0 No. (%)
Serious TEAE: Lung adenocarcinoma (Phase 1, 450 mg (N=79)): 0 No. (%)
Serious TEAE: Malignant neoplasm progression (Phase 1, 450 mg (N=79)): 1 (1.3) No. (%)
Serious TEAE: Multiple organ dysfunction syndrome (Phase 1, 450 mg (N=79)): 1 (1.3) No. (%)
Serious TEAE: Nausea (Phase 1, 450 mg (N=79)): 0 No. (%)
Serious TEAE: Nephrolithiasis (Phase 1, 450 mg (N=79)): 0 No. (%)
Serious TEAE: Platelet counts decreased (Phase 1, 450 mg (N=79)): 0 No. (%)
Serious TEAE: Pleural effusion (Phase 1, 450 mg (N=79)): 1 (1.3) No. (%)
Serious TEAE: Pneumonia (Phase 1, 450 mg (N=79)): 0 No. (%)
Serious TEAE: Pneumonitis (Phase 1, 450 mg (N=79)): 1 (1.3) No. (%)
Serious TEAE: Prolonged QT interval (Phase 1, 450 mg (N=79)): 0 No. (%)
Serious TEAE: Pulmonary embolism (Phase 1, 450 mg (N=79)): 0 No. (%)
Serious TEAE: Pyrexia (Phase 1, 450 mg (N=79)): 0 No. (%)
Serious TEAE: Rash (Phase 1, 450 mg (N=79)): 1 (1.3) No. (%)
Serious TEAE: Rectal hemorrhage (Phase 1, 450 mg (N=79)): 1 (1.3) No. (%)
Serious TEAE: Respiratory failure (Phase 1, 450 mg (N=79)): 0 No. (%)
Serious TEAE: Seizure (Phase 1, 450 mg (N=79)): 2 (2.5) No. (%)
Serious TEAE: Septic shock (Phase 1, 450 mg (N=79)): 0 No. (%)
Serious TEAE: Sudden cardiac arrest (Phase 1, 450 mg (N=79)): 0 No. (%)
Serious TEAE: Sudden death (Phase 1, 450 mg (N=79)): 0 No. (%)
Serious TEAE: Upper respiratory tract infection (Phase 1, 450 mg (N=79)): 1 (1.3) No. (%)
Serious TEAE: Ventricular tachycardia (Phase 1, 450 mg (N=79)): 0 No. (%)
Serious TEAE: Vomiting (Phase 1, 450 mg (N=79)): 0 No. (%)
Serious TEAE: Weight loss (Phase 1, 450 mg (N=79)): 0 No. (%)
Serious TRAE: ALT increased (Phase 1, 450 mg (N=79)): 0 No. (%)
Serious TRAE: AST increased (Phase 1, 450 mg (N=79)): 0 No. (%)
Serious TRAE: Abdominal Pain (Phase 1, 450 mg (N=79)): 0 No. (%)
Serious TRAE: Abdominal distension (Phase 1, 450 mg (N=79)): 0 No. (%)
Serious TRAE: Acute cholecystitis (Phase 1, 450 mg (N=79)): 0 No. (%)
Serious TRAE: Acute pancreatitis (Phase 1, 450 mg (N=79)): 0 No. (%)
Serious TRAE: Anal abscess (Phase 1, 450 mg (N=79)): 0 No. (%)
Serious TRAE: Any (Phase 1, 450 mg (N=79)): 9 (11.4) No. (%)
Serious TRAE: Aortic intramural hematoma (Phase 1, 450 mg (N=79)): 0 No. (%)
Serious TRAE: Arrhythmia (Phase 1, 450 mg (N=79)): 1 (1.3) No. (%)
Serious TRAE: Blood bilirubin increased (Phase 1, 450 mg (N=79)): 0 No. (%)
Serious TRAE: Blood creatinine increased (Phase 1, 450 mg (N=79)): 0 No. (%)
Serious TRAE: COVID-19 (Phase 1, 450 mg (N=79)): 0 No. (%)
Serious TRAE: Cardiac tamponade (Phase 1, 450 mg (N=79)): 0 No. (%)
Serious TRAE: Coronary artery atherosclerosis (Phase 1, 450 mg (N=79)): 0 No. (%)
Serious TRAE: Death (Phase 1, 450 mg (N=79)): 0 No. (%)
Serious TRAE: Diarrhea (Phase 1, 450 mg (N=79)): 0 No. (%)
Serious TRAE: Drug eruption (Phase 1, 450 mg (N=79)): 0 No. (%)
Serious TRAE: Dyspnea (Phase 1, 450 mg (N=79)): 0 No. (%)
Serious TRAE: Embolism (Phase 1, 450 mg (N=79)): 0 No. (%)
Serious TRAE: Erythema multiforme (Phase 1, 450 mg (N=79)): 0 No. (%)
Serious TRAE: Headache (Phase 1, 450 mg (N=79)): 0 No. (%)
Serious TRAE: Hemoptysis (Phase 1, 450 mg (N=79)): 2 (2.5) No. (%)
Serious TRAE: Hydronephrosis (Phase 1, 450 mg (N=79)): 0 No. (%)
Serious TRAE: Hypertension (Phase 1, 450 mg (N=79)): 1 (1.3) No. (%)
Serious TRAE: Hypoalbuminemia (Phase 1, 450 mg (N=79)): 0 No. (%)
Serious TRAE: Intestinal obstruction (Phase 1, 450 mg (N=79)): 1 (1.3) No. (%)
Serious TRAE: Intra-abdominal fluid collection (Phase 1, 450 mg (N=79)): 0 No. (%)
Serious TRAE: Intracranial tumor hemorrhage (Phase 1, 450 mg (N=79)): 0 No. (%)
Serious TRAE: Liver injury (Phase 1, 450 mg (N=79)): 0 No. (%)
Serious TRAE: Lung adenocarcinoma (Phase 1, 450 mg (N=79)): 0 No. (%)
Serious TRAE: Malignant neoplasm progression (Phase 1, 450 mg (N=79)): 0 No. (%)
Serious TRAE: Multiple organ dysfunction syndrome (Phase 1, 450 mg (N=79)): 0 No. (%)
Serious TRAE: Nausea (Phase 1, 450 mg (N=79)): 0 No. (%)
Serious TRAE: Nephrolithiasis (Phase 1, 450 mg (N=79)): 0 No. (%)
Serious TRAE: Platelet counts decreased (Phase 1, 450 mg (N=79)): 0 No. (%)
Serious TRAE: Pleural effusion (Phase 1, 450 mg (N=79)): 0 No. (%)
Serious TRAE: Pneumonia (Phase 1, 450 mg (N=79)): 0 No. (%)
Serious TRAE: Pneumonitis (Phase 1, 450 mg (N=79)): 1 (1.3) No. (%)
Serious TRAE: Prolonged QT interval (Phase 1, 450 mg (N=79)): 0 No. (%)
Serious TRAE: Pulmonary embolism (Phase 1, 450 mg (N=79)): 0 No. (%)
Serious TRAE: Pyrexia (Phase 1, 450 mg (N=79)): 0 No. (%)
Serious TRAE: Rash (Phase 1, 450 mg (N=79)): 1 (1.3) No. (%)
Serious TRAE: Rectal hemorrhage (Phase 1, 450 mg (N=79)): 1 (1.3) No. (%)
Serious TRAE: Respiratory failure (Phase 1, 450 mg (N=79)): 0 No. (%)
Serious TRAE: Seizure (Phase 1, 450 mg (N=79)): 0 No. (%)
Serious TRAE: Septic shock (Phase 1, 450 mg (N=79)): 0 No. (%)
Serious TRAE: Sudden cardiac arrest (Phase 1, 450 mg (N=79)): 0 No. (%)
Serious TRAE: Sudden death (Phase 1, 450 mg (N=79)): 0 No. (%)
Serious TRAE: Upper respiratory tract infection (Phase 1, 450 mg (N=79)): 1 (1.3) No. (%)
Serious TRAE: Ventricular tachycardia (Phase 1, 450 mg (N=79)): 0 No. (%)
Serious TRAE: Vomiting (Phase 1, 450 mg (N=79)): 0 No. (%)
Serious TRAE: Weight loss (Phase 1, 450 mg (N=79)): 0 No. (%)
Serious TEAE: ALT increased (Phase 1, 600 mg (N=64)): 2 (3.1) No. (%)
Serious TEAE: AST increased (Phase 1, 600 mg (N=64)): 2 (3.1) No. (%)
Serious TEAE: Abdominal Pain (Phase 1, 600 mg (N=64)): 0 No. (%)
Serious TEAE: Abdominal distension (Phase 1, 600 mg (N=64)): 0 No. (%)
Serious TEAE: Acute cholecystitis (Phase 1, 600 mg (N=64)): 0 No. (%)
Serious TEAE: Acute pancreatitis (Phase 1, 600 mg (N=64)): 1 (1.6) No. (%)
Serious TEAE: Anal abscess (Phase 1, 600 mg (N=64)): 1 (1.6) No. (%)
Serious TEAE: Any (Phase 1, 600 mg (N=64)): 17 (26.6) No. (%)
Serious TEAE: Aortic intramural hematoma (Phase 1, 600 mg (N=64)): 0 No. (%)
Serious TEAE: Arrhythmia (Phase 1, 600 mg (N=64)): 0 No. (%)
Serious TEAE: Blood bilirubin increased (Phase 1, 600 mg (N=64)): 1 (1.6) No. (%)
Serious TEAE: Blood creatinine increased (Phase 1, 600 mg (N=64)): 1 (1.6) No. (%)
Serious TEAE: COVID-19 (Phase 1, 600 mg (N=64)): 0 No. (%)
